Assay results taken from publication PMC3169406, “Structure of a cyclin-dependent kinase from Giardia lamblia” (Acta Crystallographica Section F: Structural Biology and …, 2011).

Target: T1, GlCDK (cyclin-dependent kinase from G. lamblia) (Giardia duodenalis, UniProt A8BZ95)
T1 construct: gene GL50803_008037; monomer in asymmetric unit; residues Ser11-Pro308 observed
T1 sequence (A8BZ95 1-308): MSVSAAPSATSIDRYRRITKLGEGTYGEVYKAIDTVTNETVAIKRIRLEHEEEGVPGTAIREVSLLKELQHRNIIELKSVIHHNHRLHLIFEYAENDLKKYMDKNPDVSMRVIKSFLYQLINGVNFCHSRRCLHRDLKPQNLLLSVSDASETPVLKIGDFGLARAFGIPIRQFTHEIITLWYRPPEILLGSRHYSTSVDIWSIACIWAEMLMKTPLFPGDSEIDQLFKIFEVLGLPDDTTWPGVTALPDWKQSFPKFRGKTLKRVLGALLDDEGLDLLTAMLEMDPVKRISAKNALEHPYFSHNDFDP
Assay: X-ray crystal structure, […] A, crystal soak
Settings: 1 mM AMP, 1 mM MgCl2, overnight soak; 200 mM sodium/potassium tartrate, 100 mM Bis-Tris propane, 25% PEG 3350; no cyclin; ATP-binding site

SMILES: Nc1ncnc2c1ncn2[C@@H]1O[C@H](COP(=O)(O)O)[C@@H](O)[C@H]1O [AMP, adenosine monophosphate]
- X-ray crystal structure, 2.0 A, crystal soak: Good OMIT density was observed for one AMP molecule
